# Source: PubChem BioAssay AID2060902 (Molecular Pharmacology Branch, DTP, NCI, 2025)
# Tested on: 485368-065-R3-J5-PDC spheroids with HUVEC/MSC, viability
# Test: Anticancer human tumor 485368-065-R3-J5-PDC patient-derived pancreatic carcinoma cell line growth inhibition [RAS]
# Details: for IC50: curve of first compound; for viability, T/C: stronger effect = lower value
# In short: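 Tumour cells grown as complex spheroids with HUVEC endothelial cells and mesenchymal stem cells, treated with RAS pathway inhibitor combinations. Each agent spans half-log steps from near clinical Cmax, or 10 microM where Cmax is unknown.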
# 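Further: spheroids exposed to agents for seven days before readout.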
smiles,measurement,setting,value
CCc1c2c(nc3ccc(O)cc13)-c1cc3c(c(=O)n1C2)COC(=O)[C@]3(O)CC + CCn1c(-c2cc(N3CCN(C)CC3)cnc2C(C)OC)c2c3cc(ccc31)-c1csc(n1)CC(NC(=O)C1CC1C)C(=O)N1CCCC(N1)C(=O)OCC(C)(C)C2,IC50,second compound 0.000949 µM,< 0.949 nM
same,IC50,second compound 0.003 µM,< 0.949 nM
same,IC50,second compound 0.00949 µM,< 0.949 nM
same,IC50,second compound 0.03 µM,< 0.949 nM
same,IC50,second compound 0.0949 µM,< 0.949 nM
same,IC50,second compound 0.3 µM,< 0.949 nM
same,"viability, T/C","second compound 0.000949 µM, first compound 0.000949 µM",29.2%
same,"viability, T/C","second compound 0.000949 µM, first compound 0.003 µM",19.3%
same,"viability, T/C","second compound 0.000949 µM, first compound 0.00949 µM",12.3%
same,"viability, T/C","second compound 0.000949 µM, first compound 0.03 µM",6.49%
same,"viability, T/C","second compound 0.000949 µM, first compound 0.0949 µM",3.81%
same,"viability, T/C","second compound 0.000949 µM, first compound 0.3 µM",3.85%
same,"viability, T/C","second compound 0.003 µM, first compound 0.000949 µM",17.6%
same,"viability, T/C","second compound 0.003 µM, first compound 0.003 µM",13.6%
same,"viability, T/C","second compound 0.003 µM, first compound 0.00949 µM",9.1%
same,"viability, T/C","second compound 0.003 µM, first compound 0.03 µM",7.85%
same,"viability, T/C","second compound 0.003 µM, first compound 0.0949 µM",5.44%
same,"viability, T/C","second compound 0.003 µM, first compound 0.3 µM",3.67%
same,"viability, T/C","second compound 0.00949 µM, first compound 0.000949 µM",15.4%
same,"viability, T/C","second compound 0.00949 µM, first compound 0.003 µM",11.8%
same,"viability, T/C","second compound 0.00949 µM, first compound 0.00949 µM",8.19%
same,"viability, T/C","second compound 0.00949 µM, first compound 0.03 µM",7.82%
same,"viability, T/C","second compound 0.00949 µM, first compound 0.0949 µM",5.53%
same,"viability, T/C","second compound 0.00949 µM, first compound 0.3 µM",6.59%
same,"viability, T/C","second compound 0.03 µM, first compound 0.000949 µM",9.82%
same,"viability, T/C","second compound 0.03 µM, first compound 0.003 µM",8.14%
same,"viability, T/C","second compound 0.03 µM, first compound 0.00949 µM",6.87%
same,"viability, T/C","second compound 0.03 µM, first compound 0.03 µM",8.66%
same,"viability, T/C","second compound 0.03 µM, first compound 0.0949 µM",5.8%
same,"viability, T/C","second compound 0.03 µM, first compound 0.3 µM",7.18%
same,"viability, T/C","second compound 0.0949 µM, first compound 0.000949 µM",8.87%
same,"viability, T/C","second compound 0.0949 µM, first compound 0.003 µM",8.54%
same,"viability, T/C","second compound 0.0949 µM, first compound 0.00949 µM",6.42%
same,"viability, T/C","second compound 0.0949 µM, first compound 0.03 µM",6.3%
same,"viability, T/C","second compound 0.0949 µM, first compound 0.0949 µM",6.27%
same,"viability, T/C","second compound 0.0949 µM, first compound 0.3 µM",5.48%
same,"viability, T/C","second compound 0.3 µM, first compound 0.000949 µM",7.33%
same,"viability, T/C","second compound 0.3 µM, first compound 0.003 µM",9.17%
same,"viability, T/C","second compound 0.3 µM, first compound 0.00949 µM",6.28%
same,"viability, T/C","second compound 0.3 µM, first compound 0.03 µM",5.07%
same,"viability, T/C","second compound 0.3 µM, first compound 0.0949 µM",5.93%
same,"viability, T/C","second compound 0.3 µM, first compound 0.3 µM",5.26%
C=CC(=O)Nc1cc(Nc2nccc(-c3cn(C)c4ccccc34)n2)c(OC)cc1N(C)CCN(C)C + CCn1c(-c2cccnc2C(C)OC)c2c3cc(ccc31)N1CCOC(CC(NC(=O)C(C(C)C)N(C)C(=O)C3(F)CCN(C(=O)C#CC(C)(C)N(C)C)CC3)C(=O)N3CCCC(N3)C(=O)OCC(C)(C)C2)C1,IC50,second compound 0.000949 µM,> 1000 nM
same,IC50,second compound 0.003 µM,> 1000 nM
same,IC50,second compound 0.00949 µM,> 1000 nM
same,IC50,second compound 0.03 µM,> 1000 nM
same,IC50,second compound 0.0949 µM,> 1000 nM
same,IC50,second compound 0.3 µM,> 1000 nM
same,"viability, T/C","second compound 0.000949 µM, first compound 0.00316 µM",104%
same,"viability, T/C","second compound 0.000949 µM, first compound 0.01 µM",94.9%
same,"viability, T/C","second compound 0.000949 µM, first compound 0.0316 µM",99%
same,"viability, T/C","second compound 0.000949 µM, first compound 0.1 µM",91%
same,"viability, T/C","second compound 0.000949 µM, first compound 0.316 µM",101%
same,"viability, T/C","second compound 0.000949 µM, first compound 1 µM",105%
same,"viability, T/C","second compound 0.003 µM, first compound 0.00316 µM",87.5%
same,"viability, T/C","second compound 0.003 µM, first compound 0.01 µM",95.3%
same,"viability, T/C","second compound 0.003 µM, first compound 0.0316 µM",102%
same,"viability, T/C","second compound 0.003 µM, first compound 0.1 µM",93.7%
same,"viability, T/C","second compound 0.003 µM, first compound 0.316 µM",113%
same,"viability, T/C","second compound 0.003 µM, first compound 1 µM",115%
same,"viability, T/C","second compound 0.00949 µM, first compound 0.00316 µM",88.7%
same,"viability, T/C","second compound 0.00949 µM, first compound 0.01 µM",95.7%
same,"viability, T/C","second compound 0.00949 µM, first compound 0.0316 µM",98.4%
same,"viability, T/C","second compound 0.00949 µM, first compound 0.1 µM",102%
same,"viability, T/C","second compound 0.00949 µM, first compound 0.316 µM",117%
same,"viability, T/C","second compound 0.00949 µM, first compound 1 µM",103%
same,"viability, T/C","second compound 0.03 µM, first compound 0.00316 µM",89.4%
same,"viability, T/C","second compound 0.03 µM, first compound 0.01 µM",114%
same,"viability, T/C","second compound 0.03 µM, first compound 0.0316 µM",92.5%
same,"viability, T/C","second compound 0.03 µM, first compound 0.1 µM",98%
same,"viability, T/C","second compound 0.03 µM, first compound 0.316 µM",105%
same,"viability, T/C","second compound 0.03 µM, first compound 1 µM",110%
same,"viability, T/C","second compound 0.0949 µM, first compound 0.00316 µM",104%
same,"viability, T/C","second compound 0.0949 µM, first compound 0.01 µM",105%
same,"viability, T/C","second compound 0.0949 µM, first compound 0.0316 µM",105%
same,"viability, T/C","second compound 0.0949 µM, first compound 0.1 µM",107%
same,"viability, T/C","second compound 0.0949 µM, first compound 0.316 µM",110%
same,"viability, T/C","second compound 0.0949 µM, first compound 1 µM",97.6%
same,"viability, T/C","second compound 0.3 µM, first compound 0.00316 µM",101%
same,"viability, T/C","second compound 0.3 µM, first compound 0.01 µM",99.7%
same,"viability, T/C","second compound 0.3 µM, first compound 0.0316 µM",106%
same,"viability, T/C","second compound 0.3 µM, first compound 0.1 µM",112%
same,"viability, T/C","second compound 0.3 µM, first compound 0.316 µM",106%
same,"viability, T/C","second compound 0.3 µM, first compound 1 µM",101%
